Patent US11000033B2, “Ketone or oxime compound, and herbicide” (NISSAN CHEMICAL CORPORATION, priority 2014, dated 2021)

Legend:
Assay type in all cases: in vivo
[1] = test system: Monochoria vaginalis; experiment: Test Example 2: herbicidal activity, application during weed generation in submerged conditions (symbol C); settings: Table 23; application herbicide amount 320 g/ha; grade 0-5 by criteria of Test Example 1
Outline: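 Seeds sown in flooded alluvial soil (4 cm water) were grown in a 25-30° C greenhouse. At the one- to two-leaf stage, diluted emulsion of compound was applied to the water surface at a predetermined rate. Effect was scored 3 weeks later.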

[2] = test system: Cyperus difformis; experiment: Test Example 3: herbicidal effect by foliage application, Wagner pot (symbol E); settings: application herbicide amount 320 g/ha
Outline: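 Plants sown in submerged alluvial soil (water depth 0.1–0.5 cm) in a 25–30 °C greenhouse and grown 14 days. An emulsion of the compound diluted in water to a set herbicide amount was sprayed uniformly on foliage. Effect on each plant scored 3 weeks after application.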

[3] = test system: directly sowed rice plant; experiment: Test Example 3: effect on crop by foliage application, Wagner pot (symbol b); settings: application herbicide amount 320 g/ha
Outline: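 Greenhouse culture at 25–30 °C of seeded rice, Cyperus difformis, Leptochloa chinensis and Echinochloa crus-galli var. crus-galli, in alluvial soil held under 0.1–0.5 cm of water in a Wagner pot.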

[4] = test system: Setaria viridis; experiment: Test Example 4: herbicidal effect by soil treatment (symbol G)
Outline: (§1)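 Seeds were sown in sterilized diluvial soil, covered with about 1.5 cm of soil, and the soil surface was sprayed with a water-diluted emulsion of the compound at a predetermined rate. Plants grew in a greenhouse at 25° C. to 30° C.; effects were scored visually 3 weeks after application.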

[5] = test system: Apera spica-venti; experiment: Test Example 4: herbicidal effect by soil treatment (symbol L)
Outline: as §1

[6] = test system: Abutilon theophrasti; experiment: Test Example 4: herbicidal effect by soil treatment (symbol M)
Outline: as §1

[7] = test system: Amaranthus retroflexus; experiment: Test Example 4: herbicidal effect by soil treatment (symbol N)
Outline: as §1

[8] = test system: Stellaria media; experiment: Test Example 4: herbicidal effect by soil treatment (symbol P)
Outline: as §1

[9] = test system: rice; experiment: Test Example 4: effect on crop by soil treatment (symbol b)
Outline: (§2)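 Greenhouse culture at 25° C. to 30° C. followed sowing of seed in spots on sterilized diluvial soil with a soil cover close to 1.5 cm thick.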

[10] = test system: wheat; experiment: Test Example 4: effect on crop by soil treatment (symbol e)
Outline: as §2

[11] = test system: Digitaria ciliaris; experiment: Test Example 5: herbicidal effect by foliage application, plastic box (symbol F); settings: 320 g/ha, 3 weeks after application
Outline: (§3)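 After sowing into sterilized diluvial soil and growing two weeks under glass at 25° C. to 30° C., seedlings receive a uniform foliar spray of diluted emulsion. Damage is judged visually three weeks on.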

[12] = test system: Avena fatua; experiment: Test Example 5: herbicidal effect by foliage application, plastic box (symbol I); settings: 320 g/ha, 3 weeks after application
Outline: as §3

[13] = test system: Alopecurus myosuroides; experiment: Test Example 5: herbicidal effect by foliage application, plastic box (symbol J); settings: 320 g/ha, 3 weeks after application
Outline: as §3

[14] = test system: soybean; experiment: Test Example 5: effect on crop by foliage application, plastic box (symbol d); settings: 320 g/ha, 3 weeks after application
Outline: (§4)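 Crop and weed seeds sown in spots in sterilized diluvial soil in plastic boxes and covered with about 1.5 cm soil. Plants raised in a greenhouse at 25° C. to 30° C. for foliar application.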

[15] = test system: wheat; experiment: Test Example 5: effect on crop by foliage application, plastic box (symbol e); settings: 320 g/ha, 3 weeks after application
Outline: as §4

[16] = test system: beet; experiment: Test Example 5: effect on crop by foliage application, plastic box (symbol f); settings: 320 g/ha, 3 weeks after application
Outline: as §4

[17] = application herbicide amount 320 g/ha

Row | Compound | Herbicidal effect grade, C: Monochoria vaginalis [1] | herbicidal effect on E, grade 0-5 [2] | effect on crop b (directly sowed rice plant), grade 0-5 [3] | F: Digitaria ciliaris, herbicidal effect grade [11] | I: Avena fatua, herbicidal effect grade [12] | J: Alopecurus myosuroides, herbicidal effect grade [13] | d: soybean, effect on crop grade [14] | e: wheat, effect on crop grade [15] | f: beet, effect on crop grade [16] | G (Setaria viridis) herbicidal effect grade [4, 17] | L (Apera spica-venti) herbicidal effect grade [5, 17] | M (Abutilon theophrasti) herbicidal effect grade [6, 17] | N (Amaranthus retroflexus) herbicidal effect grade [7, 17] | P (Stellaria media) herbicidal effect grade [8, 17] | b (directly sowed rice plant) effect on crop grade [9, 17] | e (wheat) effect on crop grade [10, 17] | other results
1 | CON=C(C)CC1CC(OC(=O)COCC(F)(F)F)=C(c2c(C)cc(C)cc2C)C1=O (centres unmarked) [1-092] | 0 (Herbicidal ratio of 5% or lower (almost no effect)) | 5 (Herbicidal ratio of 90% or more (almost completely withered)) | 5 (Herbicidal ratio of 90% or more (almost completely withered)) |  |  |  |  |  |  |  |  |  |  |  |  |  | G: Setaria viridis, herbicidal effect grade ([4]; 320 g/ha): 5 (Herbicidal ratio of 90% or more (almost completely withered)); L: Apera spica-venti, herbicidal effect grade ([5]; 320 g/ha): 5 (Herbicidal ratio of 90% or more (almost completely withered)); M: Abutilon theophrasti, herbicidal effect grade ([6]; 320 g/ha): 3 (Herbicidal ratio of 40% or higher and lower than 70%); N: Amaranthus retroflexus, herbicidal effect grade ([7]; 320 g/ha): 3 (Herbicidal ratio of 40% or higher and lower than 70%); P: Stellaria media, herbicidal effect grade ([8]; 320 g/ha): 0 (Herbicidal ratio of 5% or lower (almost no effect)); b: directly sowed rice plant, effect grade on crop ([9]; 320 g/ha): 5 (Herbicidal ratio of 90% or more (almost completely withered)); e: wheat, effect grade on crop ([10]; 320 g/ha): 4 (Herbicidal ratio of 70% or higher and lower than 90%); F: Digitaria ciliaris, herbicidal effect (criteria 0-5) [11]: 5 (Herbicidal ratio of 90% or more (almost completely withered)); I: Avena fatua, herbicidal effect (criteria 0-5) [12]: 2 (Herbicidal ratio of 20% or higher and lower than 40%); J: Alopecurus myosuroides, herbicidal effect (criteria 0-5) [13]: 4 (Herbicidal ratio of 70% or higher and lower than 90%); d: soybean, effect on crop (criteria 0-5) [14]: 0 (Herbicidal ratio of 5% or lower (almost no effect)); e: wheat, effect on crop (criteria 0-5) [15]: 4 (Herbicidal ratio of 70% or higher and lower than 90%); f: beet, effect on crop (criteria 0-5) [16]: 0 (Herbicidal ratio of 5% or lower (almost no effect))
2 | CON=C(CC1CC(O)=C(c2c(C)cc(Br)cc2C)C1=O)C(C)C (centres unmarked) [9-001] | 0 (Herbicidal ratio of 5% or lower (almost no effect)) |  |  | 4 (Herbicidal ratio of 70% or higher and lower than 90%) | 5 (Herbicidal ratio of 90% or more (almost completely withered)) | 3 (Herbicidal ratio of 40% or higher and lower than 70%) | 0 (Herbicidal ratio of 5% or lower (almost no effect)) | 0 (Herbicidal ratio of 5% or lower (almost no effect)) | 0 (Herbicidal ratio of 5% or lower (almost no effect)) |  |  |  |  |  |  |  | E herbicidal effect grade ([2]; Table 24): 2 (Herbicidal ratio of 20% or higher and lower than 40%); b (directly sowed rice plant) effect on crop grade ([3]; Table 24): 5 (Herbicidal ratio of 90% or more (almost completely withered)); Herbicidal effect grade, G: Setaria viridis [4, 17]: 4 (Herbicidal ratio of 70% or higher and lower than 90%); Herbicidal effect grade, L: Apera spica-venti [5, 17]: 4 (Herbicidal ratio of 70% or higher and lower than 90%); Herbicidal effect grade, M: Abutilon theophrasti [6, 17]: 0 (Herbicidal ratio of 5% or lower (almost no effect)); Herbicidal effect grade, N: Amaranthus retroflexus [7, 17]: 1 (Herbicidal ratio of 5% or higher and lower than 20%); Herbicidal effect grade, P: Stellaria media [8, 17]: 0 (Herbicidal ratio of 5% or lower (almost no effect)); Effect on crop grade, b: directly sowed rice plant [9, 17]: 4 (Herbicidal ratio of 70% or higher and lower than 90%); Effect on crop grade, e: wheat [10, 17]: 0 (Herbicidal ratio of 5% or lower (almost no effect))
3 | CC(CC1CC(O)=C(c2c(C)cc(C)cc2C)C1=O)=NOc1ccccc1 (centres unmarked) [1-057] | 0 (Herbicidal ratio of 5% or lower (almost no effect)) | 3 (Herbicidal ratio of 40% or higher and lower than 70%) | 5 (Herbicidal ratio of 90% or more (almost completely withered)) | 3 (Herbicidal ratio of 40% or higher and lower than 70%) | 2 (Herbicidal ratio of 20% or higher and lower than 40%) | 3 (Herbicidal ratio of 40% or higher and lower than 70%) | 3 (Herbicidal ratio of 40% or higher and lower than 70%) | 0 (Herbicidal ratio of 5% or lower (almost no effect)) | 1 (Herbicidal ratio of 5% or higher and lower than 20%) | 4 (Herbicidal ratio of 70% or higher and lower than 90%) | 4 (Herbicidal ratio of 70% or higher and lower than 90%) | 3 (Herbicidal ratio of 40% or higher and lower than 70%) | 1 (Herbicidal ratio of 5% or higher and lower than 20%) | 0 (Herbicidal ratio of 5% or lower (almost no effect)) | 5 (Herbicidal ratio of 90% or more (almost completely withered)) | 0 (Herbicidal ratio of 5% or lower (almost no effect)) | 
4 | CON=C(C)CC1CC(OC(=O)COc2ccc(C)cc2)=C(c2c(C)cc(C)cc2C)C1=O (centres unmarked) [1-072] | 0 (Herbicidal ratio of 5% or lower (almost no effect)) | 4 (Herbicidal ratio of 70% or higher and lower than 90%) | 5 (Herbicidal ratio of 90% or more (almost completely withered)) | 5 (Herbicidal ratio of 90% or more (almost completely withered)) | 5 (Herbicidal ratio of 90% or more (almost completely withered)) | 5 (Herbicidal ratio of 90% or more (almost completely withered)) | 2 (Herbicidal ratio of 20% or higher and lower than 40%) | 5 (Herbicidal ratio of 90% or more (almost completely withered)) | 1 (Herbicidal ratio of 5% or higher and lower than 20%) | 5 (Herbicidal ratio of 90% or more (almost completely withered)) | 5 (Herbicidal ratio of 90% or more (almost completely withered)) | 4 (Herbicidal ratio of 70% or higher and lower than 90%) | 5 (Herbicidal ratio of 90% or more (almost completely withered)) | 0 (Herbicidal ratio of 5% or lower (almost no effect)) | 5 (Herbicidal ratio of 90% or more (almost completely withered)) | 4 (Herbicidal ratio of 70% or higher and lower than 90%) | 
5 | CSCCON=C(C)CC1CC(O)=C(c2c(C)cc(C)cc2C)C1=O (centres unmarked) [1-029] | 0 (Herbicidal ratio of 5% or lower (almost no effect)) | 4 (Herbicidal ratio of 70% or higher and lower than 90%) | 5 (Herbicidal ratio of 90% or more (almost completely withered)) | 5 (Herbicidal ratio of 90% or more (almost completely withered)) | 5 (Herbicidal ratio of 90% or more (almost completely withered)) | 5 (Herbicidal ratio of 90% or more (almost completely withered)) | 1 (Herbicidal ratio of 5% or higher and lower than 20%) | 5 (Herbicidal ratio of 90% or more (almost completely withered)) | 0 (Herbicidal ratio of 5% or lower (almost no effect)) | 5 (Herbicidal ratio of 90% or more (almost completely withered)) | 5 (Herbicidal ratio of 90% or more (almost completely withered)) | 0 (Herbicidal ratio of 5% or lower (almost no effect)) | 0 (Herbicidal ratio of 5% or lower (almost no effect)) | 0 (Herbicidal ratio of 5% or lower (almost no effect)) | 5 (Herbicidal ratio of 90% or more (almost completely withered)) | 0 (Herbicidal ratio of 5% or lower (almost no effect)) | 
